Measured values as given in patent US20240109880A1 (Insilico Medicine IP Limited, priority 2021, published 2024).

Biological target: KAT6A (Homo sapiens (Human), UniProt Q92794)
Test: KAT6A Biochemical Assay (radiometric 384-well, [3H]-Ac-CoA, biotinylated H4(1-30) peptide)
Settings: 5 nM KAT6A enzyme solution (2×), 60 min reaction at room temperature
Description: Inhibition of KAT6A enzymatic activity by test compounds was determined using a radiometric 384-well format assay. A 10-point serial dilution of the test compounds were conducted in DMSO and then a volume of 200 nL was transferred into 384-well assay plate by Echo (Labcyte). 10 μL of 2× enzyme solution (5 nM KAT6A (Active Motif) in assay buffer (50 mM Tris-HCl pH 8.0, 50 mM KCl, 0.1 mM EDTA, 5% glycerol, 1 mM DTT)) was dispensed into assay plate except for low control wells, in which 10 μL of assay buffer was transferred. The plate was incubated at room temperature for 15 min before addition of 10 μL of 2×[^3H]-acetyl coenzyme A (Ac-CoA) and substrate peptide mix solution (500 nM (KAT6A) [^3H]-Ac-CoA (PerkinElmer) and 800 nM (KAT6A) biotinylated H4(1-30) peptide (GL Biochem) in assay buffer) to each well to start reaction. The plate was incubated at room temperature for 60 min (KAT6A), and then the reaction was stopped by adding 10 μL of stop solution (cold Ac-CoA (Cayman) in 1× assay buffer). 25 μL of reaction in each well was transferred to Flashplate (PerkinElmer) and incubated for another 1 hour at room temperature. The plate was read on Microbeta and the inhibition percentage of each compound treated well was calculated based on the equation in h %=(Max−sample)/(Max−Min)*100 where Max is signal from high control wells with enzyme, and Min is signal from low control wells with assay buffer only. The in h % data were further fit in XL-Fit to obtain IC50 values using a 4-parameter logistic (4PL) sigmoidal curve model.

Chain of KAT6A (Q92794 whole entry): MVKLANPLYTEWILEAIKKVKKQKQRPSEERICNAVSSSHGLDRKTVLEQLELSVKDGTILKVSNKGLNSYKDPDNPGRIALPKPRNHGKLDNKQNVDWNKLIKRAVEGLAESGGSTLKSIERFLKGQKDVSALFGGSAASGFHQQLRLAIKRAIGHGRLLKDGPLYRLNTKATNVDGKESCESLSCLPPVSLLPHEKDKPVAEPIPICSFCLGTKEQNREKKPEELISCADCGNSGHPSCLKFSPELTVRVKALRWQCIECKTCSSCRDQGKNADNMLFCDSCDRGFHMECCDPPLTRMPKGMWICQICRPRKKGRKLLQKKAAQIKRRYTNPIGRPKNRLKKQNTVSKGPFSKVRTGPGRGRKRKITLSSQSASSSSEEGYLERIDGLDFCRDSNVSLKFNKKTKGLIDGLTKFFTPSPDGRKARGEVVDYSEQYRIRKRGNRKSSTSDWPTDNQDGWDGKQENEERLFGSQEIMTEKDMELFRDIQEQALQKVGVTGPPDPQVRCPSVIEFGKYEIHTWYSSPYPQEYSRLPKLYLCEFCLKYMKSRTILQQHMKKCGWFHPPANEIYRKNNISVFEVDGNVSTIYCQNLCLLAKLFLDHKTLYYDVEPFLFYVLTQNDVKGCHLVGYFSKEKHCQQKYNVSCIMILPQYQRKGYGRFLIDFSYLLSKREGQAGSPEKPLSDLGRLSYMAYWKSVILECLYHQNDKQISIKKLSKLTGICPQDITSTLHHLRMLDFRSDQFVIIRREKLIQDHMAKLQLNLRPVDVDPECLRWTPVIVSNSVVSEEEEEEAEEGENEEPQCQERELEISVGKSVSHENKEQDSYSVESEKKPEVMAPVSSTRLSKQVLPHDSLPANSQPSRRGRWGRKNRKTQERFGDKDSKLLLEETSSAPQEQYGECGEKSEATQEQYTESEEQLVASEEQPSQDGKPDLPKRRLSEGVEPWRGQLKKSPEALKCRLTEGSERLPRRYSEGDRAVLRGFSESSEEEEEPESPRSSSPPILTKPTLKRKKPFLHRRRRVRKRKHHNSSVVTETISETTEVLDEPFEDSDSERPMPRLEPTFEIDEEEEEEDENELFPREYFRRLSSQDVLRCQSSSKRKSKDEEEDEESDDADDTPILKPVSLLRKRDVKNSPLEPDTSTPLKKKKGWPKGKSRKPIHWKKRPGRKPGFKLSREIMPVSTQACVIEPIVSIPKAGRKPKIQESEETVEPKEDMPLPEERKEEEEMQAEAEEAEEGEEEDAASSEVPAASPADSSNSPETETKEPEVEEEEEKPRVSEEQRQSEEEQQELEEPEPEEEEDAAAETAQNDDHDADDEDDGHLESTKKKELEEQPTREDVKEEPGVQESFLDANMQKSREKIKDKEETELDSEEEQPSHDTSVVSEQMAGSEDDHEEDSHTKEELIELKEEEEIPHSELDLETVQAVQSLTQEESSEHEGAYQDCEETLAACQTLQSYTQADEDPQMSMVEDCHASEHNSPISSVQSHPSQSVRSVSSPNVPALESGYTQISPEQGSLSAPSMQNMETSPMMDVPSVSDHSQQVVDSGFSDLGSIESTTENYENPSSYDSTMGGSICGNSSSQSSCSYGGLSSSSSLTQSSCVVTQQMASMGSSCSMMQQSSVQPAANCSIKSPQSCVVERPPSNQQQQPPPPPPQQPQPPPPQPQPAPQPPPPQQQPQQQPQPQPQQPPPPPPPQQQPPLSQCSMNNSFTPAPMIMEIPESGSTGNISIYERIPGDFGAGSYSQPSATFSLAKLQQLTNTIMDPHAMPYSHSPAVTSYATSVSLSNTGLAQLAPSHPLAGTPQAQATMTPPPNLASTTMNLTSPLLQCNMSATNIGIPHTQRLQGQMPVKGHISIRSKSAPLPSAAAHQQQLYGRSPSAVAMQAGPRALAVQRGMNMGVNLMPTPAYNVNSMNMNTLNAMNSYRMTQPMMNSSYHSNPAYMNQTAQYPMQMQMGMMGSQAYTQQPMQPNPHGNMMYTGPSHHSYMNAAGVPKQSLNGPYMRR

IC50 [nM]	SMILES
10 to 1000	COc1cc(C)ncc1S(=O)(=O)Nc1noc2cc(Cn3cccn3)cc(OC)c12 [Compound 38, N-(6-((1H-pyrazol-1-yl)methyl)-4-methoxybenzo[d]isoxazol-3-yl)-4-methoxy-6-methylpyridine-3-sulfonamide]
10 to 100	COc1cc(C2CC2)nc(OC)c1S(=O)(=O)Nc1noc2cc(Cn3cccn3)cc(OC)c12 [Compound 39, N-(6-((1H-pyrazol-1-yl)methyl)-4-methoxybenzo[d]isoxazol-3-yl)-6-cyclopropyl-2,4-dimethoxypyridine-3-sulfonamide]
10 to 100	COc1ccccc1S(=O)(=O)Nc1noc2cc(Cn3cccn3)cc(OC(F)(F)F)c12 [Compound 12, N-(6-((1H-pyrazol-1-yl)methyl)-4-(trifluoromethoxy)benzo [d]isoxazol-3-yl)-2-methoxybenzenesulfonamide]
> 1000	COc1cccc(OC)c1S(=O)(=O)Nc1noc2nc(Cn3cccn3)cc(OC)c12 [Compound 13, N-(6-((1H-pyrazol-1-yl)methyl)-4-methoxyisoxazolo[5,4-b]pyridin-3-yl)-2,6-dimethoxybenzenesulfonamide]
10 to 100	COc1ccnc(OC)c1S(=O)(=O)Nc1noc2cc(Cn3cccn3)cc(OC(F)F)c12 [Compound 5, N-(6-((1H-pyrazol-1-yl)methyl)-4-(difluoromethoxy)benzo[d]isoxazol-3-yl)-2,4-dimethoxypyridine-3-sulfonamide]
10 to 100	COc1ccccc1S(=O)(=O)Nc1noc2cc(Cn3cccn3)cc(OC(F)F)c12 [Compound 6, N-(6-((1H-pyrazol-1-yl)methyl)-4-(difluoromethoxy)benzo[d]isoxazol-3-yl)-2-methoxybenzenesulfonamide]
10 to 100	COc1ccnc(OC)c1S(=O)(=O)Nc1noc2cc(Cn3cccn3)cc(OC)c12 [Compound 2, N-(6-((1H-pyrazol-1-yl)methyl)-4-methoxybenzo[d]isoxazol-3-yl)-2,4-dimethoxypyridine-3-sulfonamide]
< 10	COc1cc(C)nc(OC)c1S(=O)(=O)Nc1noc2cc(Cn3cccn3)c3c(c12)OCC1CC31 (stereo not shown) [Compound 69, N-(7-((1H-pyrazol-1-yl)methyl)-5,5a,6,6a-tetrahydrocyclopropa[3,4]chromeno[8,7-d]isoxazol-3-yl)-2,4-dimethoxy-6-methylpyridine-3-sulfonamide]
< 10	COc1ccnc(OC)c1S(=O)(=O)Nc1noc2cc(Cn3cccn3)c3c(c12)OCCCC3 [Compound 20, N-(6-((1H-pyrazol-1-yl)methyl)-2,3,4,5-tetrahydrooxepino [3′,2′:5,6]benzo[1,2-d]isoxazol-10-yl)-2,4-dimethoxypyridine-3-sulfonamide]
10 to 100	COc1cc(C2CC2)nc(OC)c1S(=O)(=O)Nc1noc2cc(Cn3cccn3)cc(OCF)c12 [Compound 49, N-(6-((1H-pyrazol-1-yl)methyl)-4-(fluoromethoxy)benzo [d]isoxazol-3-yl)-6-cyclopropyl-2,4-dimethoxypyridine-3-sulfonamide]
10 to 100	COc1ccnc(OC)c1S(=O)(=O)Nc1noc2cc(Cn3cccn3)c(F)c(OCF)c12 [Compound 42, N-(6-((1H-pyrazol-1-yl)methyl)-5-fluoro-4-(fluoromethoxy)benzo[d]isoxazol-3-yl)-2,4-dimethoxypyridine-3-sulfonamide]
10 to 100	COc1ccnc(OC)c1S(=O)(=O)Nc1noc2cc(Cn3cccn3)c3c(c12)OCC3 [Compound 32, N-(4-((1H-pyrazol-1-yl)methyl)-2,3-dihydrobenzofuro[7,6-d]isoxazol-8-yl)-2,4-dimethoxypyridine-3-sulfonamide]
< 10	COc1cccc(OC)c1S(=O)(=O)Nc1noc2cc(Cn3cccn3)cc(OC(F)F)c12 [Compound 3, N-(6-((1H-pyrazol-1-yl)methyl)-4-(difluoromethoxy)benzo[d]isoxazol-3-yl)-2,6-dimethoxybenzenesulfonamide]
10 to 1000	COc1cc(C(F)F)nc(OC)c1S(=O)(=O)Nc1noc2cc(Cn3cccn3)cc(OCF)c12 [Compound 50, N-(6-((1H-pyrazol-1-yl)methyl)-4-(fluoromethoxy)benzo[d]isoxazol-3-yl)-6-(difluoromethyl)-2,4-dimethoxypyridine-3-sulfonamide]
10 to 100	COc1ncccc1S(=O)(=O)Nc1noc2cc(Cn3cccn3)c3c(c12)OCCC3 [Compound 16, N-(5-((1H-pyrazol-1-yl)methyl)-3,4-dihydro-2H-chromeno [8,7-d]isoxazol-9-yl)-2-methoxypyridine-3-sulfonamide]
10 to 100	CC#Cc1cc(OC)c(S(=O)(=O)Nc2noc3cc(Cn4cccn4)cc(OCF)c23)c(OC)n1 [Compound 53, N-(6-((1H-pyrazol-1-yl)methyl)-4-(fluoromethoxy)benzo[d]isoxazol-3-yl)-2,4-dimethoxy-6-(prop-1-yn-1-yl)pyridine-3-sulfonamide]
10 to 1000	COc1cccc(OC)c1S(=O)(=O)Nc1noc2cc(Cn3cccn3)cnc12 [Compound 1, N-(6-((1H-pyrazol-1-yl)methyl)isoxazolo[4,5-b]pyridin-3-yl)-2,6-dimethoxybenzenesulfonamide]
< 10	COc1cc(C)nc(OC)c1S(=O)(=O)Nc1noc2cc(Cn3cccn3)cc(OCF)c12 [Compound 37]
< 10	COc1ccnc(OC)c1S(=O)(=O)Nc1noc2cc(Cn3cccn3)c3c(c12)OCCC3 [Compound 17, N-(5-((1H-pyrazol-1-yl)methyl)-3,4-dihydro-2H-chromeno [8,7-d]isoxazol-9-yl)-2,4-dimethoxypyridine-3-sulfonamide]
< 10	C#Cc1cc(OC)c(S(=O)(=O)Nc2noc3cc(Cn4cccn4)cc(OCF)c23)c(OC)n1 [Compound 54, N-(6-((1H-pyrazol-1-yl)methyl)-4-(fluoromethoxy)benzo[d]isoxazol-3-yl)-6-ethynyl-2,4-dimethoxypyridine-3-sulfonamide]
10 to 100	COc1cccc(OC)c1S(=O)(=O)Nc1noc2cc(Cn3cccn3)cc(OC(F)(F)F)c12 [Compound 8, N-(6-((1H-pyrazol-1-yl)methyl)-4-(trifluoromethoxy)benzo[d]isoxazol-3-yl)-2,6-dimethoxybenzenesulfonamide]
10 to 1000	O=S(=O)(Nc1noc2cc(Cn3cccn3)cc(OC(F)F)c12)c1ccccc1OC(F)(F)F [Compound 7, N-(6-((1H-pyrazol-1-yl)methyl)-4-(difluoromethoxy)benzo[d]isoxazol-3-yl)-2-(trifluoromethoxy)benzenesulfonamide]
10 to 100	COc1cccc(OC)c1S(=O)(=O)Nc1noc2cc(Cn3cccn3)cc(OCC(F)(F)F)c12 [Compound 4, N-(6-((1H-pyrazol-1-yl)methyl)-4-(2,2,2-trifluoroethoxy)benzo[d]isoxazol-3-yl)-2,6-dimethoxybenzenesulfonamide]
< 10	COc1cc(C)nc(OC)c1S(=O)(=O)Nc1noc2cc(Cn3cccn3)c3c(c12)OCCC3 [Compound 18, N-(5-((1H-pyrazol-1-yl)methyl)-3,4-dihydro-2H-chromeno [8,7-d]isoxazol-9-yl)-2,4-dimethoxy-6-methylpyridine-3-sulfonamide]
10 to 100	COc1cccc(OC)c1S(=O)(=O)Nc1noc2cc(Cc3ccccn3)cc(OCF)c12 [Compound 45, N-(4-(fluoromethoxy)-6-(pyridin-2-ylmethyl)benzo[d]isoxazol-3-yl)-2,6-dimethoxybenzenesulfonamide]
10 to 100	COc1cc(C(F)(F)F)nc(OC)c1S(=O)(=O)Nc1noc2cc(Cn3cccn3)cc(OC)c12 [Compound 41, N-(6-((1H-pyrazol-1-yl)methyl)-4-methoxybenzo[d]isoxazol-3-yl)-2,4-dimethoxy-6-(trifluoromethyl)pyridine-3-sulfonamide]

SMILES	IC50 [nM]
COc1cccc(OC)c1S(=O)(=O)Nc1noc2cc(Oc3cccnn3)c3c(c12)OCCC3 [Compound 30, 2,6-dimethoxy-N-(5-(pyridazin-3-yloxy)-3,4-dihydro-2H-chromeno[8,7-d]isoxazol-9-yl)benzenesulfonamide]	10 to 100
COc1ccccc1S(=O)(=O)Nc1noc2cc(Oc3ccccn3)c3c(c12)OCCC3 [Compound 25, 2-methoxy-N-(5-(pyridin-2-yloxy)-3,4-dihydro-2H-chromeno [8,7-d]isoxazol-9-yl)benzenesulfonamide]	< 10
COc1ccccc1S(=O)(=O)Nc1noc2cc(Oc3ccccn3)c3c(c12)OCC3 [Compound 26, 2-methoxy-N-(4-(pyridin-2-yloxy)-2,3-dihydrobenzofuro[7,6-d]isoxazol-8-yl)benzenesulfonamide]	10 to 100
COc1cc(C)nc(OC)c1S(=O)(=O)Nc1noc2cc(Cn3cccn3)c(F)c(OC(F)F)c12 [Compound 44, N-(6-((1H-pyrazol-1-yl)methyl)-4-(difluoromethoxy)-5-fluorobenzo[d]isoxazol-3-yl)-2,4-dimethoxy-6-methylpyridine-3-sulfonamide]	10 to 100
COc1cccc(OC)c1S(=O)(=O)Nc1noc2cc(Oc3ncccc3C)c3c(c12)OCCC3 [Compound 36, 2,6-dimethoxy-N-(5-((3-methylpyridin-2-yl)oxy)-3,4-dihydro-2H-chromeno[8,7-d]isoxazol-9-yl)benzenesulfonamide]	< 10
